Tested on: mRNA
Experiment: mRNA degradation suppressing effect in the cell-free protein synthesis reaction solution (Transdirect insect cell); remaining mRNA detected by agarose electrophoresis and EtBr staining
Assay type: biochemical, Spodoptera frugiperda
Conditions: for degradation suppressing effect: after 240 minutes
Protocol: Using Transdirect insect cell (SHIMADZU CORPORATION), each of the following reaction solutions was prepared in a scale of 50 μL. Transdirect insect cell is a cell-free protein synthesis reaction solution containing an extract from Sf21, and contains a potassium salt, a magnesium salt, adenosine triphosphate, guanosine triphosphate, creatine phosphate, creatine kinase, an amino acid component, a tRNA, a foreign mRNA, and a buffer as ingredients other than the extract derived from Sf21.
As the RNase inhibitor, an RNase inhibitor derived from a human placenta (TAKARA BIO) was used, and as the pAp, Adenosine 3′,5′-diphosphate sodium salt (SIGMA-ALDRICH) was used, and prepared as an aqueous solution of 100 mM. Each reaction solution was subjected to a translation reaction at 25° C.
For each reaction solution, reaction solutions after 0, 60, and 120 minutes from starting of a translation reaction were recovered. 10 μL of the recovered reaction solution was collected into 20 μL of TRIzol LS Reagent (Invitrogen), and the whole RNA was extracted. The extracted RNA was dissolved in 10 μL of pure water.
To each solution of extracted RNA, 4 μL of a loading buffer (Wako Pure Chemical Industries) was added, and the total was subjected to electrophoresis (a TAE buffer, 1% agarose gel). The RNA separated by electrophoresis was detected by EtBr (ethidium bromide) staining.
By the same steps as Steps 1 to 3 of Example 1, a translation reaction was conducted for the following reaction solutions.
As for Reaction Solution 6, pAp was added before the reaction so that the final concentration was 5 mM, and after 60 minutes from starting of the reaction, 2.5 μL of a 100 mM pAp aqueous solution prepared in step 3 was added. As a result, the pAp concentration of supplemented pAp excluding the pAp that was present from the initial stage of the reaction was 5 mM.
Steps 4 and 5 as same as those in Example 1 were conducted except that for each reaction solution, the reaction solution was recovered after 0, 120, 180, and 240 minutes from starting of the translation reaction.
In Reaction Solutions 7 and 8, a 4M aqueous LiCl solution was prepared for stock, and using the stock solution, the final concentration in the reaction solution was adjusted to 50 mM.
Steps 4 and 5 were conducted in the same manner as in Example 1 except that for each reaction solution, the reaction solution was recovered after 0, 180, and 240 minutes from starting of the translation reaction.

[Cl-].[Li+] [LiCl, lithium chloride]
mRNA remaining (electrophoresis) (LiCl 50 mM alone, no pAp (lane 7), after 180 minutes): almost all the mRNA was degraded

Nc1ncnc2c1ncn2[C@@H]1O[C@H](COP(=O)(O)O)[C@@H](OP(=O)(O)O)[C@H]1O [pAp, adenosine 3′,5′-bisphosphate]
degradation suppressing effect (5 mM pAp plus supplementation of 5 mM pAp after 60 minutes (Reaction Solution 6)): sustained
RNA degradation suppressing effect (5 mM pAp, supplementation not conducted (Reaction Solution 4), after 180 minutes): lost with time
degradation suppressing effect (10 mM pAp, supplementation not conducted (Reaction Solution 5)): sustained
mRNA remaining (electrophoresis) (pAp 5 mM alone, no LiCl (lane 4), after 180 minutes): almost all the mRNA was degraded
mRNA degradation suppressing effect (pAp final concentration 5 mM, no RNase inhibitor (Reaction Solution 4), reaction times 60 and 120 minutes, 25° C.): apparent degradation suppressing effect

B1: RNase inhibitor: RNase inhibitor derived from a human placenta (TAKARA BIO) (protein, UniProt P13489 2-461, looked up)
Ribonuclease inhibitor: SLDIQSLDIQCEELSDARWAELLPLLQQCQVVRLDDCGLTEARCKDISSALRVNPALAELNLRSNELGDVGVHCVLQGLQTPSCKIQKLSLQNCCLTGAGCGVLSSTLRTLPTLQELHLSDNLLGDAGLQLLCEGLLDPQCRLEKLQLEYCSLSAASCEPLASVLRAKPDFKELTVSNNDINEAGVRVLCQGLKDSPCQLEALKLESCGVTSDNCRDLCGIVASKASLRELALGSNKLGDVGMAELCPGLLHPSSRLRTLWIWECGITAKGCGDLCRVLRAKESLKELSLAGNELGDEGARLLCETLLEPGCQLESLWVKSCSFTAACCSHFSSVLAQNRFLLELQISNNRLEDAGVRELCQGLGQPGSVLRVLWLADCDVSDSSCSSLAATLLANHSLRELDLSNNCLGDAGILQLVESVRQPGCLLEQLVLYDIYWSEEMEDRLQALEKDKPSLRVIS
mRNA degradation suppressing effect (RNase inhibitor final concentration 1 U/μL, no pAp (Reaction Solution 3 vs Reaction Solution 2), 0, 60, 120 minutes): not observed
